From patent publication US4324894A, “Aminoisoquinoline derivatives” (Egyt Gyogyszervegyeszeti Gyar, priority 1979, dated 1982)

Legend:
Assay type in all cases: in vivo
[1] = Acute toxicity on mice, oral; conditions: mouse, in vivo, po, mice weighing 18 to 22 g, orally
Procedure: (§1) The acute toxicity of the aminoisoquinoline derivatives of the formula (I) were determined on mice weighing 18 to 22 g. The compounds were administered orally. The LD50 values are summarized in Table I. Toxicity data for meprobamate [2-methyl-2-propylpropane-1,3-dioldicarbamate] and phenylbutazon [4-butyl-1,2-diphenylpyrazolidine-3,5-dione] used as reference substances in the pharmacological tests are also given in Table I.

[2] = system: narcosis developed with hexobarbital; assay: Potentiation of the narcosis developed with hexobarbital; conditions: mice; for ED50: Mus musculus, po; for Therapeutic index: p.o., corresponds to LD50/ED50
Procedure: The narcosis potentiating effects of the novel compounds having the formula (I) were studied by the method of Kaergaard and al., Arch. Int. […] The compounds studied were administered orally to groups of mice consisting of 6 animals each. To the control group, 20 ml/kg of 0.9 percent sodium chloride solution was orally administered. Then, the animals were treated with an intravenous dosage of 40 mg/kg of hexobarbital/5-(1-cyclohexenyl)-1,5-dimethylbarbituric acid/. According to our evaluation method, a 150 percent prolongation of sleeping period in relation to the control group was regarded as a positive response.
The number of animals with positive responses was related to the total number of animals treated.

mice = assay: Acute toxicity on mice, oral; conditions: mice weighing 18 to 22 g, orally
Procedure: as §1

[3] = orally, hexobarbital 40 mg/kg intravenous, positive response = 150 percent prolongation of sleeping period in relation to control

SMILES	LD50 [1]	ED50 [2, 3]	Therapeutic index [2]	LD50 p.o. (mice)	ED50 p.o. [2, 3]
Cc1c(N)nc(N2CCOCC2)c2ccccc12 [Example 1, 1-morpholinyl-3-amino-4-methylisoquinoline]	2000 mg/kg	100 mg/kg	20		
Cc1c(N)nc(N2CCN(c3ccccn3)CC2)c2ccccc12 [Example 2, 1-/4'-(2"-pyridyl)-1'-piperazinyl/-3-amino-4-methylisoquinoline]	2000 mg/kg	74 mg/kg	27		
Cc1c(N)nc(N2CCN(c3ccccn3)CC2)c2ccccc12 [Example 3, 1-/4'-(2"-pyridyl)-1'-piperazinyl/-3-amino-4-methylisoquinoline bis/ethanesulfonate/]			14.3	2000 mg/kg	140 mg/kg
Nc1cc2ccccc2c(N2CCOCC2)n1 [Example 4, 1-morpholinyl-3-aminoisoquinoline]	> 2000 mg/kg				
Nc1cc2ccccc2c(N2CCOCC2)n1 [Example 5, 1-morpholinyl-3-aminoisoquinoline ethanesulfonate]				2000 mg/kg	
Nc1cc2ccccc2c(N2CCN(c3ccccn3)CC2)n1 [Example 6, 1-/4'-(2"-pyridyl)-piperazin-1'-yl/-3-aminoisoquinoline]	2000 mg/kg	140 mg/kg	14.3		
CCCC(C)(COC(N)=O)COC(N)=O [Meprobamate, 2-methyl-2-propylpropane-1,3-dioldicarbamate, reference compound]		260 mg/kg	4.2		
